Reference: patent US20230284660A1, “Siamenoside I Sweetened Compositions and Uses of the Same” (The Coca-Cola Company, priority 2017, published 2023)

How the values were obtained:
Type in all cases: in vivo, human
[1] = Mock beverage tasting of sweeteners in citric acid buffer and phosphoric acid buffer; settings: for Dosage for ~7 Brix SE: estimated concentrations, benchmark 500 ppm mogroside V
Excerpt: Siamenoside I was separately tasted in citric acid buffer (pH 3.2) and phosphoric acid buffer (pH 2.6) at 500 ppm and compared against an equivalent solution of RebM90 (RebM with at least 90% purity) and various other sweeteners.
Accordingly, the dosage of all other sweeteners was adjusted benchmark 500 ppm mogroside V. Estimated concentrations are presented below.

[2] = Blind bench evaluation of sweeteners in six beverage matrices, RebM90 as control; settings: Lemon Lime Sparkling (70% sugar reduction)
Protocol: A blind evaluation of the above-named sweeteners was conducted in six (6) beverage (liquid) matrices, including both sparkling and still matrixes. Of the six beverage matrices, four (4) were calorie reduction matrixes and two (2) were diet matrixes. RebM90 served as control. 7-10 internal team members blindly evaluated the samples.

[3] = Blind bench tasting of lemon-lime flavored carbonated beverages; settings: in blends with Reb-M
Protocol: The ingredients were dissolved in filtered water to constitute a syrup (6.5 times concentrated), then the final beverage was made by weighing the appropriate syrup amount and adding carbonated water using a ratio of 1 part syrup+5.5 parts carbonated water. Target carbonation volume in finished beverages was […] of CO2. For samples with high Reb-M content (#1 and #2) syrup water was heated to about 47° C. to allow Reb-M solubility, then cooled down to ambient temperature before adding the remaining ingredients. Final beverages were filled in 300 ml glass bottles then aged for 3 days at 35° C. before they were cooled and served cold (4° C.).
Four experienced panelists bench tasted the beverages blindly. Each panelist was given warm bottled water and unsalted crackers to eat and rinse the palate between samples. A maximum of 3 samples was tasted at each session to avoid fatigue.

SMILES | Dosage for ~7 Brix SE [1] | further results
C[C@H](CC[C@@H](O[C@@H]1O[C@H](CO[C@@H]2O[C@H](CO)[C@@H](O)[C@H](O)[C@H]2O)[C@@H](O)[C@H](O)[C@H]1O[C@@H]1O[C@H](CO)[C@@H](O)[C@H](O)[C@H]1O)C(C)(C)O)[C@H]1CC[C@@]2(C)[C@@H]3CC=C4[C@@H](CC[C@H](O[C@@H]5O[C@H](CO)[C@@H](O[C@@H]6O[C@H](CO)[C@@H](O)[C@H](O)[C@H]6O)[C@H](O)[C@H]5O)C4(C)C)[C@]3(C)[C@H](O)C[C@]12C [Isomogroside V] | 270 ppm | Comments: less sweet [2]: less sweet (−1.5 BE), mogroside
C[C@H](CC[C@@H](O[C@@H]1O[C@H](CO)[C@@H](O)[C@H](O)[C@H]1O[C@@H]1O[C@H](CO)[C@@H](O)[C@H](O)[C@H]1O)C(C)(C)O)[C@H]1CC[C@@]2(C)[C@@H]3CC=C4[C@@H](CC[C@H](O[C@@H]5O[C@H](CO)[C@@H](O)[C@H](O)[C@H]5O)C4(C)C)[C@]3(C)[C@H](O)C[C@]12C [Mogroside IIIe] | 350 ppm | 
C[C@H](CC[C@@H](O[C@@H]1O[C@H](CO)[C@@H](O)[C@H](O)[C@H]1O[C@@H]1O[C@H](CO)[C@@H](O)[C@H](O)[C@H]1O)C(C)(C)O)[C@H]1CC[C@@]2(C)[C@H]3CC=C4[C@@H](CC[C@H](O[C@@H]5O[C@H](CO[C@@H]6O[C@H](CO)[C@@H](O)[C@H](O)[C@H]6O)[C@@H](O)[C@H](O)[C@H]5O)C4(C)C)[C@]3(C)[C@H](O)C[C@]12C [Mogroside IV] | 435 ppm | 
C[C@H](CC[C@@H](O[C@@H]1O[C@H](CO[C@@H]2O[C@H](CO)[C@@H](O)[C@H](O)[C@H]2O)[C@@H](O)[C@H](O)[C@H]1O[C@@H]1O[C@H](CO)[C@@H](O)[C@H](O)[C@H]1O)C(C)(C)O)[C@H]1CC[C@@]2(C)[C@@H]3CC=C4[C@@H](CC[C@H](O[C@@H]5O[C@H](CO[C@@H]6O[C@H](CO)[C@@H](O)[C@H](O)[C@H]6O)[C@@H](O)[C@H](O)[C@H]5O)C4(C)C)[C@]3(C)[C@H](O)C[C@]12C [Mogroside V] | 500 ppm | Brix SE ([1]; 500 ppm): approximately 7 Brix SE; relative sweetness of solutions ([1]; 500 ppm, citric acid buffer pH 3.2 and phosphoric acid buffer pH 2.6): the least sweet
C=C1C[C@@]23CC[C@H]4[C@@](C)(CCC[C@@]4(C)C(=O)O[C@@H]4O[C@H](CO)[C@@H](O)[C@H](O[C@@H]5O[C@H](CO)[C@@H](O)[C@H](O)[C@H]5O)[C@H]4O[C@@H]4O[C@@H](C)[C@H](O)[C@@H](O)[C@H]4O)[C@@H]2CC[C@]1(O[C@@H]1O[C@H](CO)[C@@H](O)[C@H](O[C@@H]2O[C@H](CO)[C@@H](O)[C@H](O)[C@H]2O)[C@H]1O[C@@H]1O[C@H](CO)[C@@H](O)[C@H](O)[C@H]1O)C3 [Rebaudioside N] | 360 ppm | 
C[C@H](CC[C@@H](O[C@@H]1O[C@H](CO[C@@H]2O[C@H](CO)[C@@H](O)[C@H](O)[C@H]2O)[C@@H](O)[C@H](O)[C@H]1O[C@@H]1O[C@H](CO)[C@@H](O)[C@H](O)[C@H]1O)C(C)(C)O)[C@H]1CC[C@@]2(C)[C@@H]3CC=C4[C@@H](CC[C@H](O[C@@H]5O[C@H](CO)[C@@H](O)[C@H](O)[C@H]5O)C4(C)C)[C@]3(C)[C@H](O)C[C@]12C [Siamenoside I] | 350 ppm | maximum sweetness intensity [3]: 10 Brix equivalent
